# Tests used:
# [1] = system: Human elastin promoter; test: Inhibition of elastin gene promoter activity in UVB-irradiated cultured dermal fibroblasts transfected with promoter-reporter molecules; assay type: cell-based; settings: for % Inhibition of elastin promoter activity at 6 hours / % Inhibition of elastin promoter activity at 12 hours: 100 μ Solution
# Protocol: An art recognized method for evaluating the molecular events associated with increased elastin production was performed by measuring the activity of the elastin gene promoter, which is responsible for the activation of elastin gene transcription. (Bernstein, E. et al. 1995 Jour. Invest. Dermatol. 105:269-273).
# Human elastin promoter molecules were linked to reporter molecules. The promoter-reporter linked molecules were then transfected into cultured dermal fibroblasts. Previous studies indicate that exposure of cultured fibroblasts to UVB radiation results in upregulation of elastin promoter activity. However, it is believed that UVA radiation may have an indirect effect on solar-induced elastosis.
# Solutions of 1 μM to 100 μM of each 3'-(L-ascorbyl-2-o-phosphoryl)-cholesterol and ascorbic acid were produced. These solutions were then supplied to cultured fibroblasts. The control consisted of cultured fibroblasts in media containing neither 3'-(L-ascorbyl-2-o-phosphoryl)-cholesterol nor ascorbic acid.
# The cultured fibroblasts were irradiated with single, dose of UVB radiation (5.5 mJ/cm^2) using an FS-40 light source. The spectrum of effectiveness of the FS-40 light source is estimated at 80 to 90% attributable to UVB. It is believed that 10 to 20% of the effectiveness of the FS-40 light source is attributable to […]. The activity attributable to UVA is believed to be negligible.
# [2] = system: cultured human keratinocytes; test: Triglyceride biosynthesis in cultured normal human keratinocytes (3H-acetate incorporation); assay type: cell-based; settings: 10 mM; 18.5 hours, then 3 hours with 3H-acetate; FIG. 1
# Protocol: Normal human keratinocytes (hereinafter "NHK") were cultured and then divided into three groups. Each of the three groups were grown in various media for 18.5 hours, the various media being as follows:
# 1 mM "cold" sodium acetate
# 10 mM Cholesterylmonophosphate (CMP)
# 10 mM 3'-(L-ascorbyl-2-o-phosphoryl)-cholesterol
# At the conclusion of 18.5 hours, 3H-acetate sodium salt (product number NEN#003H, 6.08 ci/mMole) was added to each group at 3 uCi/ml. The three groups were incubated at 37° C. for an additional 3 hours.
# At the conclusion of the incubation period, each group was washed three times with iced PBS. The cells were then collected, sonicated and aliquated for lipid extraction using Bligh/Dyer method and for protein quantification.
# The lipid extracts were subfracationated by Thin Layer Chromatography. Proteins were quantitated by Bradford assay.
# Triglyceride biosythesis in cultured human keratinocytes is measured as a function of incorporation of 3-H acetate. The incorporation of 3-H acetate is expressed as counts per minute per milligram of 3-H acetate (cpm/mg 3H acetate). The results are illustrated in FIG. 1.
# [3] = Hydroxyl radical scavenging activity by Electron Spin Resonance (DMPO, H2O2/FeSO4); assay type: biochemical; settings: for Relative Peak Height (RPH): control 100.0; for Peak Height: pH 7.4
# Protocol: Hydroxy radical scavenging activity was measured according to an art accepted method. (See Liu et al. Antioxidant Action of Guilingji in the Brain of Rats with FeCl3-induced Epilepsy, Free Radical Biol. & Med., (9:451-545, 1990.) Sample solutions of 3'-(L-ascorbyl-2-o-phosphoryl)-cholesterol of varying concentrations were prepared by dissolving 3'-(L-ascorbyl-2-o-phosphoryl)-cholesterol in 0.1M potassium phosphate buffer (pH=7.4). The following solutions were also prepared: 0.18M 5,5-dimethyl-1-pyrooline-N-oxide (hereinafter "DMPO") in 0.1M potassium phosphate buffer; 2 mM hydrogen peroxide (hereinafter "H2 O2 ") in 0.1M potassium phosphate buffer; and 0. 2 mM iron(II) sulfate (hereinafter "FeSO4 ") in distilled water. Fifty (50) […] of each of the aforedescribed solutions and […] of a sample solution were mixed for thirty (30) seconds and then placed in a flat cell. The Electron Spin Resonance was then measured using Free Radical Monitor JES-FR30, manufactured by JEOL, Tokyo, Japan, (hereinafter "FRM"). The FRM normalized all spectra for calculation by using an internal standard of manganese dioxide (hereinafter "MnO2 "). All peak heights were compared to the constant MnO2 signal generated. Each sample peak height was then divided by the MnO2 peak height to provide a relative peak height (hereinafter "RPH").
# [4] = Superoxide anion scavenging by Electron Spin Resonance (hypoxanthine-xanthine oxidase system); assay type: biochemical; settings: about 2.5 mg/ml; pH 7.4
# Protocol: Superoxide anion scavenging ability was estimated according to the method described in the Liu et al. article noted above. Superoxide anion was generated by a hypoxanthine (hereinafter "HPX")-xanthine oxidase (hereinafter "XOD") system. The following solutions were prepared: 50 μl of 4 mM HPX in 0.1M potassium phosphate buffer; 30 μl of dimethyl sulfoxide, 50 μL of sample; 20 μL OF […] DMPO in 0.1M potassium phosphate buffer; and, 50 μl of XOD (0.4 units/ml) in 0.1M potassium phosphate buffer. The pH of the 0.1M potassium phosphate buffer was 7.4. The solutions of HPX, DMSO, DMPO, XOD and sample were mixed and transferred into a 200 μl-capacity flat cell. Electron Spin Resonance spectra was analyzed.
# [5] = system: human skin fibroblasts; test: Collagen biosynthesis by cultured human skin fibroblasts ([3H]-Proline Incorporation Assay); assay type: cell-based; settings: 48 hours; for collagen biosynthesis, Dpm × 10^-3 / mg protein: control 1.55; for collagen biosynthesis, Dpm × 10^-5 / mg DNA: control 14.43
# Protocol: An art-recognized [^3 H]-Proline Incorporation Assay was performed with differne does of 3'-(L-ascorbyl-2-o-phosphoryl)-cholesterol. Juva, Anal. Biocheml, Vol, 15, PAGES 77-83 (1966); Booth, Biochem. Biophys. Acta, Vol. 675, pages 117-122 (1981).
# After the first 24 hours [^3 H]-labeled proline was added to the culture. Following the second 24 hour period, the cells are harvested and prepared for the collagen biosynthesis assay.
# Protease inhibitors are added to prevent degradation of collagen and other proteins. The cell layer is scraped into a solution containing 0.4 M NaCl and 0.01 M Tris (pH 7.5). Extracts are sonicated to disrup cell membranes. Saparate volumes of the cell-containing solution (1 ml each) are dialyzed overnight against several changes of deionized water. The retentate is removed from dialysis and hydrolyzed in 6 N hydrochloric acid at 120 degrees C. overnight. The assay is performed using an oxidation process with 2 M chloramine-T. Samples are analyzed for radioactive counts, with represent the amount of newly synthesized [^3 H]-labeled proline - - - an index for new collagen synthesis.
smiles,measurement,setting,value
"O=C1O[C@H]([C@@H](O)CO)C(O)=C1O [Ascorbic Acid, ascorbic acid, reference compound]",% Inhibition of elastin promoter activity at 6 hours,[1]; UVB 5.5 mJ/cm^2,23%
same,% Inhibition of elastin promoter activity at 12 hours,[1]; UVB 5.5 mJ/cm^2,0%
CC(C)CCC[C@@H](C)[C@H]1CC[C@H]2[C@@H]3CC=C4C[C@@H](OP(=O)(O)OC5=C(O)[C@@H]([C@@H](O)CO)OC5=O)CC[C@]4(C)[C@H]3CC[C@]12C [3'-(L-ascorbyl-2-o-phosphoryl)-cholesterol],effect on elastin promoter activity in cultured fibroblasts (in words),"[1]; 1 μM to 100 μM, UVB 5.5 mJ/cm^2",decreased elastin promoter activity in cultured fibroblasts in a dose dependent manner
same,degree of elastin promoter inhibition compared with ascorbic acid (in words),"[1]; 1 μM to 100 μM, compared to ascorbic acid",exhibits a far superior degree of elastin promoter inhibition
same,% Inhibition of elastin promoter activity at 6 hours,[1]; UVB 5.5 mJ/cm^2,43%
same,% Inhibition of elastin promoter activity at 12 hours,[1]; UVB 5.5 mJ/cm^2,34%
same,duration of elastin promoter inhibition compared with ascorbic acid (in words),[1]; compared to ascorbic acid,inhibits elastin promoter activity for a significantly longer period of time than ascorbic acid
same,triglyceride synthesis in cultured human keratinocytes (in words),[2],significantly increases triglyceride synthesis in cultured human keratinocytes
same,hydroxyl radical scavenging (in words),[3],effective scavenger of hydroxyl radicals
same,Relative Peak Height (RPH),[3]; 0.0391 mg/ml,100.0
same,Peak Height,[3]; 0.0391 mg/ml,1.60
same,Relative Peak Height (RPH),[3]; 0.0782 mg/ml,85.0
same,Peak Height,[3]; 0.0782 mg/ml,1.36
same,Relative Peak Height (RPH),[3]; 0.1563 mg/ml,78.1
same,Peak Height,[3]; 0.1563 mg/ml,1.25
same,Relative Peak Height (RPH),[3]; 0.3125 mg/ml,57.5
same,Peak Height,[3]; 0.3125 mg/ml,0.92
same,Relative Peak Height (RPH),[3]; 0.6250 mg/ml,30.6
same,Peak Height,[3]; 0.6250 mg/ml,0.49
same,Relative Peak Height (RPH),[3]; 1.2500 mg/ml,9.4
same,Peak Height,[3]; 1.2500 mg/ml,0.15
same,Relative Peak Height (RPH),[3]; 2.5000 mg/ml,5.6
same,Peak Height,[3]; 2.5000 mg/ml,0.09
same,inhibition of the formation of the superoxide,[4],50%
same,dose dependence of stimulation in human skin fibroblasts (in words),[5]; 11.3 to 45 μg/ml,increased production of new human skin fibroblasts in a dose dependent manner
same,Stimulation - fold Increase of collagen biosynthesis,[5]; 11.3 μl/ml,2.9 fold
same,"collagen biosynthesis, Dpm × 10^-3 / mg protein",[5]; 11.3 μl/ml,5.17 Dpm × 10^-3 / mg protein
same,"collagen biosynthesis, Dpm × 10^-5 / mg DNA",[5]; 11.3 μl/ml,42.07 Dpm × 10^-5 / mg DNA
same,Stimulation - fold Increase of collagen biosynthesis,[5]; 22.5 μl/ml,3.3 fold
same,"collagen biosynthesis, Dpm × 10^-3 / mg protein",[5]; 22.5 μl/ml,5.02 Dpm × 10^-3 / mg protein
same,"collagen biosynthesis, Dpm × 10^-5 / mg DNA",[5]; 22.5 μl/ml,48.31 Dpm × 10^-5 / mg DNA
same,Stimulation - fold Increase of collagen biosynthesis,[5]; 45.0 μl/ml,6.4 fold
same,"collagen biosynthesis, Dpm × 10^-3 / mg protein",[5]; 45.0 μl/ml,11.07 Dpm × 10^-3 / mg protein
same,"collagen biosynthesis, Dpm × 10^-5 / mg DNA",[5]; 45.0 μl/ml,92.25 Dpm × 10^-5 / mg DNA
